In brackets after ≈: the same amount, converted by molar mass.
Experiments:
aphid larvae = assay: Imidacloprid concentration-effect mortality curve in aphid larvae (LC50); format: in vivo; details: Acyrthosiphon pisum, artificial nutrition
Experimental: Mortality tests were performed using an artificial nutrition system comprising a PVC tube closed by a Parafilm® at each end, in which 5 adult aphids or 20 larvae were deposited. At one of the ends of the artificial nutrition “cell”, 200 μL of nutrient solution comprising the solution to be tested (insecticide, dsRNA) were deposited on the Parafilm then covered with a 2nd Parafilm to allow the aphids to suck the solution for feeding by piercing the Parafilm with their rostrum. The cells were placed at 20° C. in a chamber with a photoperiod of 16 h. To determine the concentration of imidacloprid leading to 50% mortality (LC50) in the aphid larvae, a concentration-effect curve was plotted at 48 h and 72 h from a range of imidacloprid concentrations from 10^−6 to 10 μg/mL.
The mortality curves were obtained with GraphPad Prism software in the form of a non-linear regression and adjusted with the Hill equation,
[formula] • where Y is the percent mortality observed at the concentration value X, m and M are respectively the minimum and maximum values of the curve, nH is the Hill coefficient and LC50 is the concentration of imidacloprid causing 50% mortality. The results are expressed as a mean±S.E.M. Type of Effect of the dsRNAs

[1] = tested on: cockroach Periplaneta americana; assay: Mortality after acute imidacloprid intoxication in cockroaches exposed to a sublethal dose for 30 days; format: in vivo; details: 0.025 μg/cockroach/day for 30 days, re-exposure 96 h

With `O=[N+]([O-])NC1=NCCN1Cc1ccc(Cl)nc1` [imidacloprid] as the compound, how does the LC50 (aphid larvae; 48 h) read?
The LC50 was 8 ng/mL (≈ 0.0313 µM).

What about the LC50 (aphid larvae; 72 h) of the same compound?
Its LC50 is 4 ng/mL (≈ 0.0156 µM).

And the “effect of sublethal intoxication for 30 days on sensitivity of cockroaches to acute intoxication” value [1]?
Its value is “loss of sensitivity”.

Source: patent US20250338857A1, “USE OF INTERFERING RNAS DIRECTED AGAINST THE CHOLINERGIC SYSTEM FOR CONTROLLING INSECT PESTS” (priority 2022, published 2025)
